Results reported in PubChem BioAssay (NCI).
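Protocol summary: plate cells (96-well), add compound at 5 concentrations, incubate 48 h, interpolate endpoints linearly. At the GI50, growth is halved. TGI denotes the concentration required for complete inhibition of growth.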

Columns and labels:
Assay in all cases: NCI-60 cell line screen, 48 h
NCI-H23 lung = system: NCI-H23 lung
NCI-H460 lung = system: NCI-H460 lung
NCI-H522 lung = system: NCI-H522 lung
NCI/ADR-RES ovarian = system: NCI/ADR-RES ovarian
OVCAR-3 ovarian = system: OVCAR-3 ovarian
OVCAR-4 ovarian = system: OVCAR-4 ovarian
OVCAR-5 ovarian = system: OVCAR-5 ovarian
OVCAR-8 ovarian = system: OVCAR-8 ovarian
PC-3 prostate = system: PC-3 prostate
RPMI-8226 leukemia = system: RPMI-8226 leukemia
RXF 393 renal = system: RXF 393 renal
SF-268 CNS = system: SF-268 CNS
SF-295 CNS = system: SF-295 CNS
SF-539 CNS = system: SF-539 CNS
SK-MEL-2 melanoma = system: SK-MEL-2 melanoma
SK-MEL-28 melanoma = system: SK-MEL-28 melanoma
SK-MEL-5 melanoma = system: SK-MEL-5 melanoma
SK-OV-3 ovarian = system: SK-OV-3 ovarian
SN12C renal = system: SN12C renal
SNB-19 CNS = system: SNB-19 CNS
SNB-75 CNS = system: SNB-75 CNS
SR leukemia = system: SR leukemia
SW-620 colon = system: SW-620 colon
T-47D breast = system: T-47D breast
TK-10 renal = system: TK-10 renal
U251 CNS = system: U251 CNS
UACC-257 melanoma = system: UACC-257 melanoma
UACC-62 melanoma = system: UACC-62 melanoma
UO-31 renal = system: UO-31 renal

CN(Cc1ccccc1)c1ccc(CO)c(Cl)c1
GI50 (NCI-H23 lung): 17.9 µM
TGI (NCI-H23 lung): > 100 µM
GI50 (NCI-H460 lung): 1.72 µM
TGI (NCI-H460 lung): 14.6 µM
GI50 (NCI-H522 lung): 29 µM
TGI (NCI-H522 lung): > 100 µM
GI50 (NCI/ADR-RES ovarian): 18.9 µM
TGI (NCI/ADR-RES ovarian): 72.6 µM
GI50 (OVCAR-3 ovarian): 3.36 µM
TGI (OVCAR-3 ovarian): 12.9 µM
GI50 (OVCAR-4 ovarian): 2.54 µM
TGI (OVCAR-4 ovarian): 43.6 µM
GI50 (OVCAR-5 ovarian): 0.595 µM
TGI (OVCAR-5 ovarian): 3.08 µM
GI50 (OVCAR-8 ovarian): 20.7 µM
TGI (OVCAR-8 ovarian): > 100 µM
GI50 (PC-3 prostate): 28.6 µM
TGI (PC-3 prostate): > 100 µM
GI50 (RPMI-8226 leukemia): 15.4 µM
TGI (RPMI-8226 leukemia): > 96.2 µM
GI50 (RXF 393 renal): 13.1 µM
TGI (RXF 393 renal): > 60.9 µM
GI50 (SF-268 CNS): 47.2 µM
TGI (SF-268 CNS): > 100 µM
GI50 (SF-295 CNS): 4.25 µM
TGI (SF-295 CNS): > 76.8 µM
GI50 (SF-539 CNS): 61.3 µM
TGI (SF-539 CNS): > 100 µM
GI50 (SK-MEL-2 melanoma): 8.78 µM
TGI (SK-MEL-2 melanoma): 49.2 µM
GI50 (SK-MEL-28 melanoma): 50.5 µM
TGI (SK-MEL-28 melanoma): > 100 µM
GI50 (SK-MEL-5 melanoma): 13.6 µM
TGI (SK-MEL-5 melanoma): 37.5 µM
GI50 (SK-OV-3 ovarian): 8.99 µM
TGI (SK-OV-3 ovarian): 52 µM
GI50 (SN12C renal): 31.8 µM
TGI (SN12C renal): > 100 µM
GI50 (SNB-19 CNS): > 84.3 µM
TGI (SNB-19 CNS): > 100 µM
GI50 (SNB-75 CNS): 22.4 µM
TGI (SNB-75 CNS): > 80.7 µM
GI50 (SR leukemia): 19 µM
TGI (SR leukemia): > 86.6 µM
GI50 (SW-620 colon): 7.98 µM
TGI (SW-620 colon): > 100 µM
GI50 (T-47D breast): 0.857 µM
TGI (T-47D breast): 5.45 µM
GI50 (TK-10 renal): 0.225 µM
TGI (TK-10 renal): 1.01 µM
GI50 (U251 CNS): 4.55 µM
TGI (U251 CNS): > 90.8 µM
GI50 (UACC-257 melanoma): 0.432 µM
TGI (UACC-257 melanoma): 1.69 µM
GI50 (UACC-62 melanoma): 0.384 µM
TGI (UACC-62 melanoma): 3.93 µM
GI50 (UO-31 renal): 15 µM
TGI (UO-31 renal): > 100 µM
